Earlier results as cited in US20200138880A1, “BACTERIA-BASED GEL COMPOSITIONS FOR TOPICAL APPLICATIONS AND USES THEREOF” (PROBIOTICAL S.P.A., priority 2016, published 2020).

Conditions: well known; free melatonin not bound to globulins

SMILES: COc1ccc2[nH]cc(CCNC(C)=O)c2c1 [melatonin]
- melatonin concentration in saliva as share of its plasma levels: 24%-33%
